Laboratory results: the supplement of paper PMC11451515

Experiments:
Settings in all cases: 48 h
SEM cells [1] = test: AUC of viability dose-response curve (% viability x log10 dose units); higher = less sensitive
Summary of the method: (§1)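 Seeding of medium-adapted leukemia cells was at 500 or 1000 cells/well in 1536-well plates, followed by 48 h at 37°C with library compounds in DMSO at 11 threefold doses from 47 μM to 0.79 nM. CellTiter-Glo One luminescence was normalised per plate to DMSO and cell-free wells and fitted as a four-parameter log-logistic function of log10 dose. Area under the curve was integrated by trapezoidal rule, with curves exceeding full viability scaled and curves failing quality control removed.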

P12-Ichikawa [2] = test: as above
Summary of the method: as §1

NOMO1 [3] = test: as above
Summary of the method: as §1

SEM cells [4] = test: cell viability relative to DMSO control; higher = less cytotoxic
Summary of the method: (§2)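 Viability was expressed as a per-plate percentage of DMSO wells, with cell-free wells as background. Leukemia cells (NOMO1 or SEM at 500 cells/well, P12-Ichikawa at 1000 cells/well) were adapted for at least four passages in each medium and seeded in 1536-well plates (5 μl). Library compounds in DMSO were pin-dosed over an 11-point threefold series from 47 μM to 0.79 nM, and CellTiter-Glo One luminescence was read after 48 h at 37°C.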

P12-Ichikawa [5] = test: as above
Summary of the method: as §2

NOMO1 [6] = test: as above
Summary of the method: as §2

COc1cc([C@@H](CC(=O)O)c2ccc(C)c(CN3C[C@@H](C)Oc4ccccc4[S+]3(=O)[O-])c2)cc2nnn(C)c12
AUC of viability dose-response curve
Settings	NOMO1 [3]	P12-Ichikawa [2]	SEM cells [1]
HPLM + 10% dialyzed FBS	403	407	452
RPMI 5 mM glucose + 10% FBS	418	446	350
RPMI 5 mM glucose + 10% dialyzed FBS	431	452	367

cell viability [%]
Settings	NOMO1 [6]	P12-Ichikawa [5]	SEM cells [4]
HPLM + 10% dialyzed FBS, 0.000781 µM	123	108	97.2
HPLM + 10% dialyzed FBS, 0.00234 µM	120	115	104
HPLM + 10% dialyzed FBS, 0.00702 µM	111	114	104
HPLM + 10% dialyzed FBS, 0.0211 µM	121	110	108
HPLM + 10% dialyzed FBS, 0.0632 µM	110	109	106
HPLM + 10% dialyzed FBS, 0.19 µM	118	110	103
HPLM + 10% dialyzed FBS, 0.569 µM	96.8	115	108
HPLM + 10% dialyzed FBS, 1.71 µM	119	109	102
HPLM + 10% dialyzed FBS, 5.12 µM	66.6	96.6	87
HPLM + 10% dialyzed FBS, 15.4 µM	30.3	12.6	88.4
HPLM + 10% dialyzed FBS, 46.1 µM	26.5	10.5	70.2
RPMI 5 mM glucose + 10% FBS, 0.000781 µM	114	115	115
RPMI 5 mM glucose + 10% FBS, 0.00234 µM	117	114	111
RPMI 5 mM glucose + 10% FBS, 0.00702 µM	117	118	133
RPMI 5 mM glucose + 10% FBS, 0.0211 µM	98.7	106	134
RPMI 5 mM glucose + 10% FBS, 0.0632 µM	97.1	126	87
RPMI 5 mM glucose + 10% FBS, 0.19 µM	102	113	82.6
RPMI 5 mM glucose + 10% FBS, 0.569 µM	104	121	83.7
RPMI 5 mM glucose + 10% FBS, 1.71 µM	99.3	111	96.6
RPMI 5 mM glucose + 10% FBS, 5.12 µM	92.4	101	67.5
RPMI 5 mM glucose + 10% FBS, 15.4 µM	90.3	84	18.1
RPMI 5 mM glucose + 10% FBS, 46.1 µM	91.1	67.4	14.5
RPMI 5 mM glucose + 10% dialyzed FBS, 0.000781 µM	102	114	116
RPMI 5 mM glucose + 10% dialyzed FBS, 0.00234 µM	118	122	116
RPMI 5 mM glucose + 10% dialyzed FBS, 0.00702 µM	116	115	110
RPMI 5 mM glucose + 10% dialyzed FBS, 0.0211 µM	104	125	104
RPMI 5 mM glucose + 10% dialyzed FBS, 0.0632 µM	113	114	104
RPMI 5 mM glucose + 10% dialyzed FBS, 0.19 µM	99.5	112	78.5
RPMI 5 mM glucose + 10% dialyzed FBS, 0.569 µM	100	116	83.2
RPMI 5 mM glucose + 10% dialyzed FBS, 1.71 µM	101	116	89.7
RPMI 5 mM glucose + 10% dialyzed FBS, 5.12 µM	86.2	104	74.3
RPMI 5 mM glucose + 10% dialyzed FBS, 15.4 µM	79.6	94.7	64.4
RPMI 5 mM glucose + 10% dialyzed FBS, 46.1 µM	75.4	70.7	53.9

COc1ccc(C(=O)c2c(C)n(CCN3CCOCC3)c3ccccc23)cc1
AUC of viability dose-response curve
Settings	NOMO1 [3]	P12-Ichikawa [2]	SEM cells [1]
HPLM + 10% dialyzed FBS	466	456	459
RPMI 5 mM glucose + 10% FBS	439	463	400
RPMI 5 mM glucose + 10% dialyzed FBS	430	434	449

cell viability [%]
Settings	NOMO1 [6]	P12-Ichikawa [5]	SEM cells [4]
HPLM + 10% dialyzed FBS, 0.000781 µM	87.4	94.2	83.5
HPLM + 10% dialyzed FBS, 0.00234 µM	99.9	104	93.6
HPLM + 10% dialyzed FBS, 0.00702 µM	98.1	101	93.3
HPLM + 10% dialyzed FBS, 0.0211 µM	108	95.2	102
HPLM + 10% dialyzed FBS, 0.0632 µM	107	106	99.8
HPLM + 10% dialyzed FBS, 0.19 µM	129	111	105
HPLM + 10% dialyzed FBS, 0.569 µM	107	103	84.3
HPLM + 10% dialyzed FBS, 1.71 µM	104	109	108
HPLM + 10% dialyzed FBS, 5.12 µM	95.2	98.3	104
HPLM + 10% dialyzed FBS, 15.4 µM	90.2	111	108
HPLM + 10% dialyzed FBS, 46.1 µM	87.6	111	103
RPMI 5 mM glucose + 10% FBS, 0.000781 µM	91.7	89.3	74.4
RPMI 5 mM glucose + 10% FBS, 0.00234 µM	92.5	91.1	89
RPMI 5 mM glucose + 10% FBS, 0.00702 µM	94.4	95	88.5
RPMI 5 mM glucose + 10% FBS, 0.0211 µM	91.7	100	88.3
RPMI 5 mM glucose + 10% FBS, 0.0632 µM	85.4	97.5	91.5
RPMI 5 mM glucose + 10% FBS, 0.19 µM	99.6	96.7	93.2
RPMI 5 mM glucose + 10% FBS, 0.569 µM	82.9	101	77.9
RPMI 5 mM glucose + 10% FBS, 1.71 µM	97.1	113	85.2
RPMI 5 mM glucose + 10% FBS, 5.12 µM	95.7	84.4	87.5
RPMI 5 mM glucose + 10% FBS, 15.4 µM	88.6	110	72.8
RPMI 5 mM glucose + 10% FBS, 46.1 µM	93.7	98.9	66.5
RPMI 5 mM glucose + 10% dialyzed FBS, 0.000781 µM	87.1	96.5	95.6
RPMI 5 mM glucose + 10% dialyzed FBS, 0.00234 µM	84.2	93.2	88.3
RPMI 5 mM glucose + 10% dialyzed FBS, 0.00702 µM	92.5	99.4	97.9
RPMI 5 mM glucose + 10% dialyzed FBS, 0.0211 µM	88.5	98.2	93.5
RPMI 5 mM glucose + 10% dialyzed FBS, 0.0632 µM	104	99.3	97.2
RPMI 5 mM glucose + 10% dialyzed FBS, 0.19 µM	76.9	102	97.4
RPMI 5 mM glucose + 10% dialyzed FBS, 0.569 µM	98.9	98.4	96.1
RPMI 5 mM glucose + 10% dialyzed FBS, 1.71 µM	92	93.8	83.8
RPMI 5 mM glucose + 10% dialyzed FBS, 5.12 µM	87.9	104	102
RPMI 5 mM glucose + 10% dialyzed FBS, 15.4 µM	86.6	112	92.1
RPMI 5 mM glucose + 10% dialyzed FBS, 46.1 µM	92	109	87.8
